# Measurements as given in patent US6737383B1, “Herbicidal oxadiazolidines” (priority 1999, dated 2004).
# Legend:
# wheat = assay: Test B pre/postemergence wheat; type: in vivo, Triticum aestivum
# Method in brief: (§1)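 Response is a visual 0-to-10 score relative to untreated plants, where 0 means no effect and 10 means complete control, taken twelve to sixteen days after application. Treatments went onto soil at planting and onto foliage of 1- to 4-leaf plants, using a surfactant-containing non-phytotoxic solvent.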
# smallflower flatsedge = assay: Test B flood test smallflower flatsedge; type: in vivo, Cyperus difformis
# Method in brief: (§2)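 Plants were grown to the 2-leaf stage before treatment with test chemical, then held in a greenhouse for twelve to sixteen days. Injury was visually rated against untreated controls on a 0–10 scale, where 0 is no effect and 10 is complete control.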
# blackgrass = assay: Test B pre/postemergence blackgrass; type: in vivo, Alopecurus myosuroides
# Method in brief: as §1
# wild oat = assay: Test B pre/postemergence wild oat; type: in vivo, Avena fatua
# Method in brief: as §1
# morningglory = assay: Test B pre/postemergence morningglory; type: in vivo, Ipomoea hederacea
# Method in brief: as §1
# rice = assay: Test B flood test rice; type: in vivo, Oryza sativa
# Method in brief: as §2
# rape = assay: Test B pre/postemergence rape; type: in vivo, Brassica napus
# Method in brief: as §1
# giant foxtail = assay: Test B pre/postemergence giant foxtail; type: in vivo, Setaria faberii
# Method in brief: as §1
# bedstraw = assay: Test B pre/postemergence bedstraw; type: in vivo, Galium aparine
# Method in brief: as §1
# crabgrass = assay: Test B pre/postemergence crabgrass; type: in vivo, Digitaria sanguinalis
# Method in brief: as §1
# sugar beet = assay: Test B pre/postemergence sugar beet; type: in vivo, Beta vulgaris
# Method in brief: as §1
# pigweed = assay: Test B pre/postemergence pigweed; type: in vivo, Amaranthus retroflexus
# Method in brief: as §1
# purple nutsedge = assay: Test B pre/postemergence purple nutsedge; type: in vivo, Cyperus rotundus
# Method in brief: as §1
# surinam grass = assay: Test B pre/postemergence surinam grass; type: in vivo, Brachiaria decumbens
# Method in brief: as §1
# corn = assay: Test B pre/postemergence corn; type: in vivo, Zea mays
# Method in brief: as §1
# bamyardgrass = assay: Test B flood test barnyardgrass; type: in vivo, Echinochloa crus-galli
# Method in brief: as §2
# [1] = Preemergence, Rate 62 g/ha, scale of 0 to 10 where 0 is no effect and 10 is complete control
# [2] = Preemergence, Rate 250 g/ha, scale of 0 to 10 where 0 is no effect and 10 is complete control
# [3] = Preemergence, Rate 500 g/ha, scale of 0 to 10 where 0 is no effect and 10 is complete control
# [4] = Rate 62 g/ha, Postemergence, scale of 0 to 10 where 0 is no effect and 10 is complete control
# [5] = Rate 125 g/ha, Postemergence, scale 0 to 10
# [6] = Rate 125 g/ha, Preemergence, scale of 0 to 10 where 0 is no effect and 10 is complete control
# [7] = Rate 62 g/ha, headed Pre-emergence (flood test species), scale 0 to 10 (0 no effect, 10 complete control)
# [8] = Rate 125 g/ha, Pre-emergence, flood test species, scale 0 to 10 where 0 is no effect and 10 is complete control
# [9] = Rate 250 g/ha, Pre-emergence, flood-test species, scale 0 to 10, 0 is no effect, 10 is complete control
# [10] = Rate 500 g/ha, Pre-emergence, flood test species, scale 0 to 10 (0 no effect, 10 complete control)
# [11] = Rate 500 g/ha, Postemergence, scale 0 to 10
compound,measurement,setting,value
C#CCn1c(=O)on(C(=O)N(c2ccc(F)cc2)C(C)C)c1=O [Compound 212],Wheat plant response rating,wheat; [1],0
same,Wheat plant response rating,wheat; [2],5
same,"Plant response rating, Wheat",wheat; [3],7
same,Wheat plant response rating,wheat; [4],0
same,Wheat plant response rating,wheat; [5],0
same,Wheat plant response rating,wheat; [6],0
same,"Plant response rating (0 to 10; 0 is no effect, 10 is complete control), Wheat","wheat; Rate 250 g/ha, Postemergence",0
same,S. Flatsedge plant response rating,smallflower flatsedge; [7],0
same,S. Flatsedge plant response rating,smallflower flatsedge; [8],0
same,S. Flatsedge plant response rating,smallflower flatsedge; [9],0
same,S. Flatsedge plant response rating,smallflower flatsedge; [10],0
same,Blackgrass plant response rating,blackgrass; [1],4
same,Blackgrass plant response rating,blackgrass; [2],7
same,"Plant response rating, Blackgrass",blackgrass; [3],9
same,Blackgrass plant response rating,blackgrass; [4],6
same,Blackgrass plant response rating,blackgrass; [5],6
same,Blackgrass plant response rating,blackgrass; [6],4
same,"Plant response rating (0 to 10; 0 is no effect, 10 is complete control), Blackgrass","blackgrass; Rate 250 g/ha, Postemergence",6
same,Blackgrass plant response rating,blackgrass; [11],7
same,Wild oats plant response rating,wild oat; [1],0
same,Wild oats plant response rating,wild oat; [2],3
same,"Plant response rating, Wild oats",wild oat; [3],7
same,Wild oats plant response rating,wild oat; [4],0
same,Wild oats plant response rating,wild oat; [5],0
same,"Plant response rating (0 to 10; 0 is no effect, 10 is complete control), Wild oats","wild oat; Rate 250 g/ha, Postemergence",0
same,Morningglory plant response rating,morningglory; [1],0
same,Morningglory plant response rating,morningglory; [2],0
same,"Plant response rating, Morningglory",morningglory; [3],0
same,Morningglory plant response rating,morningglory; [4],2
same,Morningglory plant response rating,morningglory; [5],3
same,Morningglory plant response rating,morningglory; [6],0
same,"Plant response rating (0 to 10; 0 is no effect, 10 is complete control), Morningglory","morningglory; Rate 250 g/ha, Postemergence",4
same,Morningglory plant response rating,morningglory; [11],8
same,Rice plant response rating,rice; [7],0
same,Rice plant response rating,rice; [8],0
same,Rice plant response rating,rice; [9],0
same,Rice plant response rating,rice; [10],0
same,Rape plant response rating,rape; [1],0
same,Rape plant response rating,rape; [2],6
same,"Plant response rating, Rape",rape; [3],8
same,Rape plant response rating,rape; [4],0
same,Rape plant response rating,rape; [5],0
same,Rape plant response rating,rape; [6],0
same,"Plant response rating (0 to 10; 0 is no effect, 10 is complete control), Rape","rape; Rate 250 g/ha, Postemergence",0
same,Rape plant response rating,rape; [11],3
same,Giant foxtail plant response rating,giant foxtail; [1],2
same,Giant foxtail plant response rating,giant foxtail; [2],9
same,"Plant response rating, Giant foxtail",giant foxtail; [3],10
same,Giant foxtail plant response rating,giant foxtail; [4],4
same,Giant foxtail plant response rating,giant foxtail; [5],6
same,Giant foxtail plant response rating,giant foxtail; [6],4
same,"Plant response rating (0 to 10; 0 is no effect, 10 is complete control), Giant foxtail","giant foxtail; Rate 250 g/ha, Postemergence",6
same,Giant foxtail plant response rating,giant foxtail; [11],9
same,Bedstraw plant response rating,bedstraw; [1],0
same,Bedstraw plant response rating,bedstraw; [2],0
same,"Plant response rating, Bedstraw",bedstraw; [3],10
same,Bedstraw plant response rating,bedstraw; [4],0
same,Bedstraw plant response rating,bedstraw; [5],0
same,Bedstraw plant response rating,bedstraw; [6],0
same,"Plant response rating (0 to 10; 0 is no effect, 10 is complete control), Bedstraw","bedstraw; Rate 250 g/ha, Postemergence",2
same,Bedstraw plant response rating,bedstraw; [11],7
same,Crabgrass plant response rating,crabgrass; [1],0
same,Crabgrass plant response rating,crabgrass; [2],5
same,"Plant response rating, Crabgrass",crabgrass; [3],5
same,Crabgrass plant response rating,crabgrass; [4],6
same,Crabgrass plant response rating,crabgrass; [5],6
same,Crabgrass plant response rating,crabgrass; [6],4
same,"Plant response rating (0 to 10; 0 is no effect, 10 is complete control), Crabgrass","crabgrass; Rate 250 g/ha, Postemergence",8
same,Crabgrass plant response rating,crabgrass; [11],9
same,Sugarbeets plant response rating,sugar beet; [1],0
same,Sugarbeets plant response rating,sugar beet; [2],5
same,"Plant response rating, Sugarbeets",sugar beet; [3],8
same,Sugarbeets plant response rating,sugar beet; [4],0
same,Sugarbeets plant response rating,sugar beet; [5],0
same,Sugarbeets plant response rating,sugar beet; [6],5
same,"Plant response rating (0 to 10; 0 is no effect, 10 is complete control), Sugarbeets","sugar beet; Rate 250 g/ha, Postemergence",0
same,Sugarbeets plant response rating,sugar beet; [11],5
same,Redroot pigweed plant response rating,pigweed; [1],9
same,Redroot pigweed plant response rating,pigweed; [2],10
same,"Plant response rating, Redroot pigweed",pigweed; [3],10
same,Redroot pigweed plant response rating,pigweed; [4],0
same,Redroot pigweed plant response rating,pigweed; [5],5
same,Redroot pigweed plant response rating,pigweed; [6],9
same,Redroot pigweed plant response rating,pigweed; [11],7
same,Nutsedge plant response rating,purple nutsedge; [1],0
same,Nutsedge plant response rating,purple nutsedge; [2],0
same,"Plant response rating, Nutsedge",purple nutsedge; [3],0
same,Nutsedge plant response rating,purple nutsedge; [4],0
same,Nutsedge plant response rating,purple nutsedge; [5],0
same,Nutsedge plant response rating,purple nutsedge; [6],0
same,"Plant response rating (0 to 10; 0 is no effect, 10 is complete control), Nutsedge","purple nutsedge; Rate 250 g/ha, Postemergence",0
same,Nutsedge plant response rating,purple nutsedge; [11],0
same,B. signalgrass plant response rating,surinam grass; [1],0
same,B. signalgrass plant response rating,"surinam grass; Preemergence, Rate 250 g/ha, scale 0 to 10, 0 is no effect, 10 is complete control",5
same,"Plant response rating, B. signalgrass",surinam grass; [3],5
same,B. signalgrass plant response rating,surinam grass; [4],2
same,B. signalgrass plant response rating,"surinam grass; Rate 125 g/ha, Postemergence, scale 0 (no effect) to 10 (complete control)",4
same,B. signalgrass plant response rating,surinam grass; [6],1
same,"Plant response rating (0 to 10; 0 is no effect, 10 is complete control), B. signalgrass","surinam grass; Rate 250 g/ha, Postemergence",7
same,B. signalgrass plant response rating,"surinam grass; Rate 500 g/ha, Postemergence, scale 0 to 10, 0 no effect, 10 complete control",7
same,Corn plant response rating,corn; [1],0
same,Corn plant response rating,corn; [2],0
same,"Plant response rating, Corn",corn; [3],0
same,Corn plant response rating,corn; [4],0
same,Corn plant response rating,corn; [5],0
same,Corn plant response rating,corn; [6],0
same,"Plant response rating (0 to 10; 0 is no effect, 10 is complete control), Corn","corn; Rate 250 g/ha, Postemergence",0
same,Corn plant response rating,corn; [11],0
same,Barnyardgrass plant response rating,bamyardgrass; [7],0
same,Barnyardgrass plant response rating,bamyardgrass; [8],0
same,Barnyardgrass plant response rating,bamyardgrass; [9],0
same,Barnyardgrass plant response rating,bamyardgrass; [10],0
